Measured values taken from patent US8815891B2, “Tricyclic derivative or pharmaceutically acceptable salts thereof, preparation method thereof, and pharmaceutical composition containing the same” (Je Il Pharmaceutical Co., Ltd., priority 2008, dated 2014).
Where a name gives a salt, the structure may show the parent alone.

What was measured:
[1] = biological target: PARP-1 enzyme (Cricetulus griseus (Chinese hamster) (Cricetulus barabensis griseus), UniProt Q9R152); experiment: Intracellular PARP inhibitory activity (NAD(P)H released by MMS-treated CHO-K1 cells); format: cell-based
Method: In order to verify the ability of the compounds of the present invention to inhibit the PARP-1 enzyme activity, the amount of NAD(P)H accumulated on cell culture medium was measured.
The Chinese hamster ovary cells (CHO-K1) were cultured in RPMI1640 culture medium containing 10% fetal bovine serum (FBS). The cultured CHO-K1 cells were seeded into 96 well plate by 2.9×10^3 cells/well, and cultured for 16 hours under culture condition of 37° C., 5% CO2. After the culture, the cells were treated with the compounds of the Examples at varying concentrations, and cultured at 37° C. for 2 hours. […] The amount of […] released to the culture medium 3, 4, 5 hours after the treatment with MMS was quantified at 450 nm using Wallac EnVision™ (PerkinElmer Oy, Turku, Finland). The transference numbers of the compounds at varying concentrations according to the present invention are the average values obtained from four wells, and the results were calculated using regression analysis.
The Chinese hamster ovary cells (CHO-K1) were treated with the compounds at varying concentration according to the present invention, and the amount of NAD(P)H released into the culture medium 4 hours after the MMS treatment was quantified.

[2] = test system: MCF-7 Cell line; experiment: Cell growth inhibition of cancer cell lines (SRB assay), MCF-7; format: cell-based
Method: (§1) The tests on cell growth inhibitory activity were performed with respect to A549 (US, ATCC), SK-OV-3 (Korea Research Institute of Chemical Technology; KRICT), HT-29 (US, ATCC), MCF-7 cell (US, ATCC), using Sulforhodamin-B <SRB> Assay (1989, US National Cancer Institute (NCI)) which was developed to measure the in vitro anti-cancer activity of the drug. […] The samples of the compounds of the Examples according to the present invention were used for the tests, and before the tests, the samples were dissolved in dimethylsulfoxide and diluted with the culture medium (RPMI 1640) to be used. The final concentration of the sample was varied in the range of 0.3˜100 μM. After the culture medium was removed from the 96 well plates, the diluted sample solution was added by 100 μl, and cultured in 37° C., 5% CO2 culture medium for 72 hours. The time zero (Tz) plates were collected at the time point of adding the sample. Upon completing the culture, the medium was removed from each well along with Tz plate, then cold 10% trichloroacetic acid (TCA) was added by 100 μl per well. The wells were left at 4° C. for 1 hour, so that the cells were fixed into the bottom of the plates. After the cells were fixed, the plates were rinsed with water five to six times to remove the remaining trichloroacetic acid solution, and moisture was completely dried at room temperature. The cells were dyed for 30 minutes by adding the dye solution in which 0.4% sulforhodamine-B was dissolved in 1% acetic acid solution, by 100 μl per dried wells. The above was rinsed again with 1% acetic acid solution five to six times to ensure that sulforhodamine-B which had not attached to the cells was removed. The plates were again dried at room temperature. 100 μl of 10 mM tris-buffer was then added to dissolve the dye, and the optical density (OD) at 520 nm was measured with the microplate reader. GI50 of the sample regarding cancer cell was calculated as explained below. Time zero (Tz), control value (C) and test value (T) were obtained, in which Tz corresponds to OD value of time at which the sample is applied and culture is started, C corresponds to OD value of the well which is cultured without treatment with the sample, and T corresponds to OD value of the well which is treated with the sample and then cultured. The degree of cell growth inhibition of the sample was measured using: If […] [Mathematical Formula 1]
(§2) Further, the ability of Examples 2, 42, 49, 52, 72, 74, 101 to increase growth inhibition effect of temozolomide and SN-38 at 2 μM was determined.

[3] = test system: Rat Middle Cerebral Artery Occlusion (MCAO) Animal Model; experiment: Neuroprotective effect in rat middle cerebral artery occlusion (MCAO) animal model; format: in vivo; conditions: for Infarct volume: 22 hours after reperfusion; for Percent of infraction decrease: vs control group
Method: Animal test was performed on male Sprague Dawley rats (KOATECH Co., Ltd., South Korea) weighing 280 to 340 g. Animals were given food and water ad libitum and adapted to the test environment for 1 week. The modified intraluminal filament technique as described by Zea Longa et al. (Stroke, 20:84-91, 1989) was used to induce MCAO. The rats were developed ischemic regions due to insufficient blood flow in striatum and temporal lobe which are the domain regions of the middle cerebral artery and depletion of oxygen and energy sources after the middle cerebral artery occlusion. In order to occlude the middle cerebral artery with the intraluminal suture method, 4-0 nylon suture was cut to 22 mm, and 2 mm of the terminal end was rounded by flame heating. In order to increase the effect of damage preventing and occlusion in the lumen, a probe was coated with silicon to 0.3 mm.
Rats were anaesthetized with isoflurane (3% for induction and 2% for surgical procedure) in a mixture of oxygen/nitrous oxide (30%/70%). The left common carotid artery (CCA) was exposed through a ventral midline incision in the neck. The external carotid artery (ECA), internal carotid artery (ICA), and CCA were carefully isolated and maintained in a Y-shape by use of silk suture. The upper external carotid artery was blocked by a thread, and a minute hole is bored 1 mm below the spot at which the external and internal carotid arteries bifurcate from the common carotid. The probe was inserted in the minute hole and fixed by a thread. The neck wound was closed and each animal was allowed to recover from anesthesia. 120 min after MCA occlusion, each animal was re-anesthetized, and the neck wound was re-opened to remove the thread. Along with the reperfusion, the compound of Example 74 was injected intravenously. 22 hours after the reperfusion, the animals were sacrificed by CO2 suffocation, decapitated, and 2 mm thick six coronal sections were obtained using rodent brain matrix. The coronal slices were incubated in phosphate-buffered saline (PBS) containing 2% 2,3,5-triphenyl tetrazolium chloride (TTC, Sigma) at 37° C. for 30 min, and then fixed in 4% phosphate-buffered formalin. After fixation these brain sections were scanned using a flat-bed scanner. The infarct area was determined by image J (NIH image version 1.59), and the total infarct volume was calculated by: Infarct volume (mm^3)=infarct […]×thickness of slice (2 mm) [Mathematical formula 3]
The statistical analysis of the decrease of infarct volume was performed by Mann Whitney test (*:p<0.05, **:p<0.01).

[4] = test system: HT-29 Cell line; experiment: Cell growth inhibition of cancer cell lines (SRB assay), HT-29; format: cell-based
Method: as §1, §2

Chain of PARP-1 enzyme (Q9R152 whole entry): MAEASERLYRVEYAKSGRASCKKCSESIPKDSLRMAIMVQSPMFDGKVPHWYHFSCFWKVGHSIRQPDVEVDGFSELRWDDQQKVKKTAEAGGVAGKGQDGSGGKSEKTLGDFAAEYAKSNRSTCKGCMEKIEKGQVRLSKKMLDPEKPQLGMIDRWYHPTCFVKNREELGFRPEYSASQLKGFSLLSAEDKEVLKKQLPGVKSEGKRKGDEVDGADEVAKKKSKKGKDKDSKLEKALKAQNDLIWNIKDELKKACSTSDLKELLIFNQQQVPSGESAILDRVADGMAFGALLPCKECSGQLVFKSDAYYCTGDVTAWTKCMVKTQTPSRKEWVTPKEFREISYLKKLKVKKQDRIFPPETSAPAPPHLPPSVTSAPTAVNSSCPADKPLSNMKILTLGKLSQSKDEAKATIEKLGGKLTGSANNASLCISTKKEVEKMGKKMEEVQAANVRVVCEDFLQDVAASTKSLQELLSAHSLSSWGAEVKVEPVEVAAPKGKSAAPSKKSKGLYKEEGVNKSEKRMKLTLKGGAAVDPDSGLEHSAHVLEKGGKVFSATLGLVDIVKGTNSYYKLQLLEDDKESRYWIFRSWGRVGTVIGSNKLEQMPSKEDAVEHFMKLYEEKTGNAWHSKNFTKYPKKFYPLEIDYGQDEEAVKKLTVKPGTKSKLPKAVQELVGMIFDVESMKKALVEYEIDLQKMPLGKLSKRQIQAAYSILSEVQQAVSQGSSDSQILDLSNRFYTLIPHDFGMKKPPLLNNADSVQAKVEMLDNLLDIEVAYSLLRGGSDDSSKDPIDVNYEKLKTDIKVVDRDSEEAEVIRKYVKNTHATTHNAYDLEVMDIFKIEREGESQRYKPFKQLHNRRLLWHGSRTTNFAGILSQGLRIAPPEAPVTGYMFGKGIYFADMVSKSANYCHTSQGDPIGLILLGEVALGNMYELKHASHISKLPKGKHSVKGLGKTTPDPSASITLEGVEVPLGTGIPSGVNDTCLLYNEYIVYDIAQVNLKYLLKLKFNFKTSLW

How did the IC50 [1] turn out when `COc1cc(CN2CCOCC2)cc2[nH]c(=O)c3c(c12)NCCC3` [Example 74, 10-Methoxy-8-(morpholinomethyl)-1,2,3,4-tetrahydrobenzo[h][1,6]naphthyridine-5(6H)-one dihydrochloride] was run?
Its IC50 is 1.48 µM.

And the “SN-38 PF50” value ([2]; 2 μM compound)?
Its value is 3.0.

What about the “Temozolomide PF50” value ([2]; 2 μM compound) of the same compound?
Its value is 6.3.

And the GI50 ([2]; Homo sapiens, MCF7, 72 hours)?
The GI50 was 45 µM.

And the Infarct volume ([3]; 10 mg/kg intravenously at reperfusion)?
Its Infarct volume is 252.38 mm^3.

What about the “Percent of infraction decrease” value ([3]; 10 mg/kg intravenously) of the same compound?
Its value is 4%.

And the Infarct volume ([3]; 20 mg/kg intravenously at reperfusion)?
The Infarct volume was 124.68 mm^3.

And the “Percent of infraction decrease” value ([3]; 20 mg/kg intravenously)?
The value was 53%.

What about the Infarct volume ([3]; 30 mg/kg intravenously at reperfusion) of the same compound?
Its Infarct volume is 162.88 mm^3.

And the “Percent of infraction decrease” value ([3]; 30 mg/kg intravenously)?
Its value is 38%.

What about the “SN-38 PF50” value ([4]; 2 μM compound) of the same compound?
The value was 3.5.

What about the “Temozolomide PF50” value ([4]; 2 μM compound) of the same compound?
Its value is >2.8.

What about the GI50 ([4]; Homo sapiens, 72 hours) of the same compound?
The GI50 was 30 µM.
